Test results as given in patent US9181258B2, “Substituted 3,4-dihydropyrrolo[1,2-a]pyrazin-1(2H)-ones as protein kinase inhibitors” (NERVIANO MEDICAL SCIENCES S.R.L., priority 2011, dated 2015).
Structures can show the parent of a compound that is named as a salt. Where two headings read alike, the source gives them in different places.

Key:
human PIM2 = human PIM2 (Homo sapiens (Human), UniProt Q9P1W9); assay: PIM2 kinase inhibition assay: Dowex technique; type: biochemical; settings: ATP 4 μM, Aktide 5 μM, enzyme 1.5 nM; read-out: PIM-2 IC50
Procedure, shortened: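 Radiometric Dowex read-out, run as for PIM1, with 50 mM HEPES pH 7.5, 1 mM MgCl2, 1 mM DTT, 3 μM Na3VO4 and 0.2 mg/mL BSA. Final conditions: 5 μM Aktide substrate, 4 μM ATP spiked with 1 nM 33P-γ-ATP, 1.5 nM full-length human enzyme.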

BaF3-PIM1 cells = assay: In vitro cell proliferation assay (CellTiter-Glo), BaF3-PIM1; type: cell-based; settings: 72 hours
MV-4-11 cells = assay: In vitro cell proliferation assay (CellTiter-Glo), MV-4-11; type: cell-based
Procedure: In Vitro Cell Proliferation Assay
MV-4-11 (biphenotypic B myelomonocytic leukemia) cell line was obtained from ATCC.
Media for MV-4-11 cell line contained RPMI 1640 or EMEM plus 2 mM Glutamine and 10% Fetal bovine serum.
BaF3-PIM1 and MV-4-11 cells were seeded at 125 cells/well and 1250 cells/well respectively in a 384-well white plates in complete medium and treated with compounds dissolved in 0.1% DMSO, 24 h after seeding.
The cells were incubated at 37° C. and 5% CO2 and after 72 hours the plates were processed using CellTiter-Glo assay (Promega) following the manufacturer's instruction.
CellTiter-Glo was a homogenous method based on the quantification of the ATP present, an indicator of metabolitically active cells. ATP was quantified using a system based on luciferase and D-luciferin resulting into light generation. The luminescent signal was proportional to the number of cells present in culture.
Briefly 25 μl/well reagent solution were added to each wells and after 5 minutes shacking microplates were red by Envision (PerkinElmer) luminometer. The luminescent signal was proportional to the number of cells present in culture.
Inhibitory activity was evaluated comparing treated versus control data using Assay Explorer (MDL) program. IC50 was calculated using sigmoidal interpolation curve.

human PIM1 = human PIM1 (Homo sapiens (Human), UniProt P11309); assay: Biochemical assay for inhibitors of PIM1 kinase activity (trans-phosphorylation, Dowex technique); settings: ATP 200 μM, Aktide 25 μM, enzyme 1 nM; read-out: PIM-1 IC50
Procedure, shortened: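 Full-length human PIM1 (1 nM) phosphorylates Aktide (25 μM) with 200 μM ATP plus 6 nM ^33P-γ-ATP in HEPES 50 mM pH 7.5, 10 mM MgCl2, 1 mM DTT, 3 μM NaVO3, 0.2 mg/mL BSA. Unreacted ATP captured on Dowex resin, supernatant β-counted; IC50 from ten-point 1:3 dilution sigmoidal fit.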

Sequence of human PIM2 (Q9P1W9 whole entry): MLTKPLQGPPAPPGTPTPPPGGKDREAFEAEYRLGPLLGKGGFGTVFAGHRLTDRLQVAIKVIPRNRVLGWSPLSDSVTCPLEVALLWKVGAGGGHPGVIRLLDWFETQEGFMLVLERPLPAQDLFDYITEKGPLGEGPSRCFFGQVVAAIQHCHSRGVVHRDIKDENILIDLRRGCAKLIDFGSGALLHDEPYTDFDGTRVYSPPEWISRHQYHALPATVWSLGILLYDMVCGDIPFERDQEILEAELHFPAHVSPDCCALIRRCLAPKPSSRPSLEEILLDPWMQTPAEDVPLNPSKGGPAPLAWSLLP
Sequence of human PIM1 (P11309 whole entry): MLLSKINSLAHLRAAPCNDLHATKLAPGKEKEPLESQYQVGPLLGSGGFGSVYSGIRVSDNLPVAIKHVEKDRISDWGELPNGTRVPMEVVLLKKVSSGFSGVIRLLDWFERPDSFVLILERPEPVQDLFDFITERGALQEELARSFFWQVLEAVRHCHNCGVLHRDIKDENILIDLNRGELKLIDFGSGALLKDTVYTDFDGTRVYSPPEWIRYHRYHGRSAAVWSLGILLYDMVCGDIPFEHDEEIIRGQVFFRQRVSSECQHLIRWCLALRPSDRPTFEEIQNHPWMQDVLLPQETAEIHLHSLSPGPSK

Row | SMILES | IC50 (human PIM2) [nM] | IC50 (BaF3-PIM1 cells) [nM] | IC50 (MV-4-11 cells; Homo sapiens, MV4-11, 72 hours) [nM] | IC50 (human PIM1) [nM] | IC50 (MV-4-11 cells; 72 hours, read-out: MV4-11 IC50) [nM]
1 | NCC[C@H]1CNC(=O)c2cc(-c3cccc(OC(F)(F)F)c3)c(-c3ccc4ccccc4c3)n21 [Compound 118, (4S)-4-(2-aminoethyl)-6-(naphthalen-2-yl)-7-[3-(trifluoromethoxy)phenyl]-3,4-dihydropyrrolo[1,2-a]pyrazin-1(2H)-one hydrochloride] | 152 | 310 | 760 | 27 | 
2 | NCC[C@H]1CNC(=O)c2cc(-c3cccc(OC(F)(F)F)c3)c(-c3ccc(S(N)(=O)=O)cc3)n21 [Compound 120, 4-{(4S)-4-(2-aminoethyl)-1-oxo-7-[3-(trifluoromethoxy)phenyl]-1,2,3,4-tetrahydropyrrolo[1,2-a]pyrazin-6-yl}benzenesulfonamide hydrochloride] | 3 | 1360 | 5350 | 1 | 
3 | NCC[C@H]1CNC(=O)c2cc(-c3cccc(OC(F)(F)F)c3)c(-c3cccc(F)c3)n21 [Compound 121, (4S)-4-(2-aminoethyl)-6-(3-fluorophenyl)-7-[3-(trifluoromethoxy)phenyl]-3,4-dihydropyrrolo[1,2-a]pyrazin-1(2H)-one hydrochloride] | 12 | 86 | 660 | 3 | 
4 | Cc1cc(-c2c(-c3cccc(OC(F)(F)F)c3)cc3n2[C@@H](CCN)CNC3=O)ccc1F [Compound 122, (4S)-4-(2-aminoethyl)-6-(4-fluoro-3-methylphenyl)-7-[3-(trifluoromethoxy)phenyl]-3,4-dihydropyrrolo[1,2-a]pyrazin-1(2H)-one hydrochloride] | 86 | 165 | 776 | 17 | 
5 | CSc1ccc(-c2c(-c3cccc(OC(F)(F)F)c3)cc3n2[C@@H](CCN)CNC3=O)cc1 [Compound 123, (4S)-4-(2-aminoethyl)-6-[4-(methylsulfanyl)phenyl]-7-[3-(trifluoromethoxy)phenyl]-3,4-dihydropyrrolo[1,2-a]pyrazin-1(2H)-one hydrochloride] | 45 | 89 | 730 | 16 | 
6 | CC(C)(C)c1ccc(-c2c(-c3cccc(OC(F)(F)F)c3)cc3n2[C@@H](CCN)CNC3=O)cc1 [Compound 124, (4S)-4-(2-aminoethyl)-6-(4-tert-butylphenyl)-7-[3-(trifluoromethoxy)phenyl]-3,4-dihydropyrrolo[1,2-a]pyrazin-1(2H)-one hydrochloride] | 160 | 130 | 468 | 24 | 
7 | CS(=O)(=O)NCC[C@H]1CNC(=O)c2cc(-c3cccc(OC(F)(F)F)c3)c(-c3ccccc3)n21 [Compound 147, N-(2-{(4S)-1-oxo-6-phenyl-7-[3-(trifluoromethoxy)phenyl]-1,2,3,4-tetrahydropyrrolo[1,2-a]pyrazin-4-yl}ethyl)methanesulfonamide] | 172 | 638 | 3620 | 26 | 

The next lines start with the values.

Row | IC50 (human PIM2) [nM] | IC50 (BaF3-PIM1 cells) [nM] | IC50 (MV-4-11 cells; Homo sapiens, MV4-11, 72 hours) [nM] | IC50 (human PIM1) [nM] | IC50 (MV-4-11 cells; 72 hours, read-out: MV4-11 IC50) [nM] | SMILES
8 | 97 | 304 | 940 | 44 |  | NCC[C@H]1CNC(=O)c2cc(-c3cccc(OC(F)(F)F)c3)c(-c3cccc(C(F)(F)F)c3)n21 [Compound 125, (4S)-4-(2-aminoethyl)-7-[3-(trifluoromethoxy)phenyl]-6-[3-(trifluoromethyl)phenyl]-3,4-dihydropyrrolo[1,2-a]pyrazin-1(2H)-one hydrochloride]
9 | 21 | 125 | 776 | 13 |  | NCC[C@H]1CNC(=O)c2cc(-c3cccc(OC(F)(F)F)c3)c(-c3cccc(Cl)c3)n21 [Compound 126, (4S)-4-(2-aminoethyl)-6-(3-chlorophenyl)-7-[3-(trifluoromethoxy)phenyl]-3,4-dihydropyrrolo[1,2-a]pyrazin-1(2H)-one hydrochloride]
10 | 24 | 125 | 433 | 12 |  | CCOc1ccc(-c2c(-c3cccc(OC(F)(F)F)c3)cc3n2[C@@H](CCN)CNC3=O)cc1F [Compound 127, (4S)-4-(2-aminoethyl)-6-(4-ethoxy-3-fluorophenyl)-7-[3-(trifluoromethoxy)phenyl]-3,4-dihydropyrrolo[1,2-a]pyrazin-1(2H)-one hydrochloride]
11 | 32 | 175 |  | 8 | 470 | COc1c(C)cc(-c2c(-c3cccc(OC(F)(F)F)c3)cc3n2[C@@H](CCN)CNC3=O)cc1C [Compound 128, 4S)-4-(2-aminoethyl)-6-(4-methoxy-3,5-dimethyl phenyl)-7-[3-(trifluoromethoxy)phenyl]-3,4-dihydropyrrolo[1,2-a]pyrazin-1(2H)-one hydrochloride]
12 | 12 | 198 | 710 | 3 |  | COc1ccc(-c2c(-c3cccc(OC(F)(F)F)c3)cc3n2[C@@H](CCN)CNC3=O)cc1Cl [Compound 129, (4S)-4-(2-aminoethyl)-6-(3-chloro-4-methoxyphenyl)-7-[3-(trifluoromethoxy)phenyl]-3,4-dihydropyrrolo[1,2-a]pyrazin-1(2H)-one hydrochloride]
13 | 66 | 4320 | 7060 | 2 |  | CN(C)Cc1ccc(-c2c(-c3cccc(OC(F)(F)F)c3)cc3n2[C@@H](CCCN)CNC3=O)cc1 [Compound 134, (4S)-4-(3-aminopropyl)-6-{4-[(dimethylamino)methyl]phenyl}-7-[3-(trifluoromethoxy)phenyl]-3,4-dihydropyrrolo[1,2-a]pyrazin-1(2H)-one dihydrochloride]
14 | 174 | 491 | 4890 | 34 |  | CC(=O)NCC[C@H]1CNC(=O)c2cc(-c3cccc(OC(F)(F)F)c3)c(-c3ccccc3)n21 [Compound 142, N-(2-{(4S)-1-oxo-6-phenyl-7-[3-(trifluoromethoxy)phenyl]-1,2,3,4-tetrahydropyrrolo[1,2-a]pyrazin-4-yl}ethyl)acetamide]
